This note sets out measurements from patent US8629277B2, “Styrenyl 1,2,4-oxadiazole compounds” (Piramal Enterprises Limited, priority 2010, dated 2014).

The target in test [1] is T1, Ba/F3 Bcr-Abl/E255K (Homo sapiens, UniProt P00519, E255K, cells depend on it).
T1 construct: fused on or other part: P11274 (Breakpoint cluster region protein)
The experiment in a line: Cell proliferation and cytotoxicity CCK-8 assay. The format is cell-based. To be noted: mouse, 72 h. (Tetrazolium dyes change colour on reduction, which living cells bring about.)

Test [2] has as its target T2, Ba/F3 Bcr-Abl/F317L (Homo sapiens, UniProt P00519, F317L, cells depend on it).
T2 construct: fused on or other part: P11274 (Breakpoint cluster region protein)
Description: Cell proliferation and cytotoxicity CCK-8 assay. The format is cell-based. To be noted: mouse, 72 h.

Test [3] deals with Ba/F3 Bcr-Abl/T315I. Description: In-vivo efficacy in imatinib-resistant xenograft model in SCID mice. To be noted: 200 mpk b.i.d., p.o.
Description: Cell lines Ba/F3 transfectants expressing full-length wild type imatinib sensitive (Ba/F3 Bcr-Abl/WT) or mutated imatinib resistant (Ba/F3 Bcr-Abl/T315I) were used in this study.
Required compound was weighed and admixed with 0.5% (w/v) carboxymethylcellulose (CMC) and triturated with Tween-20 (secundum artum) with gradual addition of water to make up the final concentration.
Ba/F3 Bcr-Abl/WT cells and Ba/F3 Bcr-Abl/T315I cells were grown in RPMI1640 medium containing 10% fetal calf serum in 5% CO2 incubator at 37° C. Cells were pelleted by centrifugation at 1000-rpm for 10 minutes. Cells were resuspended in saline to get a count of 80-100×10^6 cells per mL, 0.2 mL of this cell suspension was injected by subcutaneous (s.c.) route in SCID mice. Mice were observed alternate days for palpable tumor mass. Once the tumor size reached a size of 5-7 mm in diameter, animals were randomized into respective treatment groups. Dose of control or test compound was administered every day. Tumor size was recorded at 2-5 day intervals. Tumor weight (mg) was estimated according to the formula for a prolate ellipsoid: {Length (mm)×[width (mm)^2]×0.5} assuming specific gravity to be one and π to be three. Tumor growth in compound treated animals is calculated as T/C (Treated/Control)×100% and Growth inhibition Percent (GI %) was [100−T/C %].
Test [4] concerns the target T3, Ba/F3 Bcr-Abl/WT (Homo sapiens, UniProt P00519).
T3 construct: fused on or other part: P11274 (Breakpoint cluster region protein)
Description: Cell proliferation and cytotoxicity CCK-8 assay. To be noted: imatinib sensitive cell line; CCK-8, 72 h; read-out: Inhibitory concentrations (IC50) Ba/F3 Bcr-Abl/WT. The format is cell-based. From the text:
Cell Proliferation and Cytotoxicity CCK-8 Assay:
Cell Counting Kit-8 (CCK-8) assay is a sensitive colorimetric assay for the determination of number of viable cells in cell proliferation and cytotoxicity assays. Cell Counting Kit-8 (CCK-8) utilizes Dojindo's highly water-soluble tetrazolium salt. The amount of the formazan dye generated by dehydrogenases in cells is directly proportional to the number of living cells.
The cell lines described in Table 1 were used to test the antiproliferative activity of the compounds of the present invention.
Cells were seeded at a density of ˜5×10^3 per well (0.09 mL) in a transparent 96-well tissue culture plate (NUNC, USA) and allowed to incubate at 37° C., 5% CO2 incubator for 2-6 h. Different concentrations of compounds of the present invention were added to the wells of the culture plate in triplicate. […] Plates were further incubated in an incubator at 37° C. in presence of 5% CO2 for 72 h. 10 μL of the CCK-8 solution was added to each well and plate was incubated for 1-4 h in the incubator. The absorbance was measured at 450 nm using a microplate reader. The percent inhibition and IC50 were calculated in comparison with control values.

Test [5] deals with K562. Description: Cell proliferation and cytotoxicity CCK-8 assay. The following applies: Homo sapiens; imatinib sensitive cell line K562; CCK-8, 72 h; read-out: Inhibitory concentrations (IC50) K562. In kind it is cell-based, human.
Test [6] has as its system K562. The experiment in a line: Flow cytometric analysis of apoptosis (PI staining). In kind it is cell-based, human. The method, then:
Effect of the Compounds of Present Invention in Bcr-Abl Mutated Imatinib Mesylate-Resistant Cell Lines on Cell Cycle and Apoptosis Using Flow Cytometry.
The assay was carried out as in reference, FEBS Letters, 2007, 581, 7, 1329-1334. […] At the end of incubation, cells were harvested by centrifugation at 1000 rpm for 10 minutes, washed with phosphate buffered saline (PBS) and gradually resuspended in 70% ice-cold ethanol (to facilitate the permeablisation of stains). Cell suspension was stored for a minimum period of 4 h before staining with propidium iodide (PI). Fixed cells were stained with PI (80 μg/mL) in presence of RNase A (50 μg/mL), and read on Becton Dickinson FACS Calibur (USA) for cell cycle analysis.
(In general: A flow cytometer gives signals particle by particle.)

In test [7] the target is T4, Ba/F3 Bcr-Abl/F359V (Homo sapiens, UniProt P00519, F359V, cells depend on it).
T4 construct: fused on or other part: P11274 (Breakpoint cluster region protein)
The experiment in a line: Cell proliferation and cytotoxicity CCK-8 assay. In kind it is cell-based. To be noted: mouse, 72 h.

Test [8] deals with T5, Ba/F3 Bcr-Abl/E255V (Homo sapiens, UniProt P00519, E255V, cells depend on it).
T5 construct: fused on or other part: P11274 (Breakpoint cluster region protein)
The experiment in a line: Cell proliferation and cytotoxicity CCK-8 assay. In kind it is cell-based. To be noted: mouse, 72 h.

Test [9] addresses T6, Ba/F3 Bcr-Abl/H396R (Homo sapiens, UniProt P00519, H396R, cells depend on it).
T6 construct: fused on or other part: P11274 (Breakpoint cluster region protein)
The experiment in a line: Cell proliferation and cytotoxicity CCK-8 assay. The following applies: mouse, 72 h. The format is cell-based.

For test [10], the target named is T7, Ba/F3 Bcr-Abl/Y253H (Homo sapiens, UniProt P00519, Y253H, cells depend on it).
T7 construct: fused on or other part: P11274 (Breakpoint cluster region protein)
Description: Cell proliferation and cytotoxicity CCK-8 assay. In kind it is cell-based. To be noted: mouse, 72 h.

In test [11] the target is T8, Ba/F3 Bcr-Abl/H396P (Homo sapiens, UniProt P00519, H396P, cells depend on it).
T8 construct: fused on or other part: P11274 (Breakpoint cluster region protein)
Description: Cell proliferation and cytotoxicity CCK-8 assay. To be noted: mouse, 72 h. The format is cell-based.

Test [12] relates to TGFβ. The experiment in a line: TGFβ assay, Western blot analysis in Ba/F3 Bcr-Abl/T315I cells. The format is cell-based. To be noted: T315I cell line, 3×IC50, 72 h, FIG. 3. The method, then:
TGFβ is a prime candidate for maintaining the CML stem cells in a non-cycling state. […] TGFβ plays a vital role in the preservation of the malignant progenitor population, and is partially responsible for the resistance to treatments targeting Bcr-Abl observed in a proportion of CML patients.
The Western Blot assay was carried out as in reference, Analytical Biochemistry, 1981, 112, 2, 195-203.
Western blot analysis was performed to decipher the mechanism of action of compounds of the present invention. […] The cells were incubated in a humidified incubator for 2-4 h at 37° C. […] Cells were then incubated for 72 h. Following the incubation, cells were harvested, washed with ice-cold phosphate buffered saline (PBS) and lysed with cold Cell Lytic buffer (Sigma Aldrich) supplemented with complete protease inhibitor cocktail (Roche, Germany). The protein extracts were obtained after centrifugation at 14,000 g at 4° C. (30 min). Aliquots of the resulting extracts were analyzed for their protein content using Bradford Reagent (Sigma) as per the manufacturer's instructions. In all the experiments, equivalent amounts of protein (70 μg) were loaded on 7.5%-10% Tris-glycine gels and resolved at 100 V for 2 h in a buffered solution (24.9 mM Tris base, 250 mM glycine, 0.1% SDS (sodium dodecyl sulfate)). […]
(In general: Immunoblotting shows a protein as a band on a membrane.)

Test [13] concerns the target T9, Ba/F3 Bcr-Abl/M244V (Homo sapiens, UniProt P00519, M244V, cells depend on it).
T9 construct: fused on or other part: P11274 (Breakpoint cluster region protein)
Description: Cell proliferation and cytotoxicity CCK-8 assay. The format is cell-based. To be noted: mouse, 72 h.

With `CCCc1noc(C=Cc2ccc(O)c(O)c2)n1` [Compound of Example 3, 4-[2-(3-Propyl-[1,2,4]oxadiazol-5-yl)-vinyl]-benzene-1,2-diol], the GI50 in test [1] was 5400 nM; in [2], 1950 ± 210 nM; in [4] it was less than 10000 nM; in test [7] it was 2000 ± 420 nM; in test [8] it was 2100 ± 750 nM; in [9], 2250 ± 770 nM. Further, the GI50 in [10] came to 1700 ± 780 nM; in [11], 2000 ± 980 nM; in test [13], 2100 nM. Also, in [3], the “Tumor growth inhibition percent (% GI) Ba/F3 Bcr-Abl/T315I” value was determined as 54%. The IC50 in [5] was 11000 to 100000 nM. The “% Apoptosis by Flow Cytometry Analysis” value came to 5% in test [6] (3X IC50, 96 h time point); 12.7% in [6] (5X IC50, 48 h time point); 3.4% in test [6] (5X IC50, 96 h time point). The “p-Smad2 and p-Smad3, effector target molecules of TGFβ signaling” value in [12] is “strongly downregulated”.

`Oc1ccc(C=Cc2nc(Cc3ccccc3)no2)cc1O` [Compound of Example 4, 4-[2-(3-Benzyl-[1,2,4]oxadiazol-5-yl)-vinyl]-benzene-1,2-diol]: the GI50 in test [1] was more than 10000 nM; in test [2], 2850 ± 350 nM; in test [4], less than 10000 nM; in test [7] it was 3000 ± 700 nM; in test [8], 4000 ± 1400 nM; in test [9], 3050 ± 70 nM. Also, the GI50 in test [10] stood at 2500 ± 750 nM; in test [11] it was 2600 ± 1200 nM; in test [13] it was 2300 nM. Moreover, the “Tumor growth inhibition percent (% GI) Ba/F3 Bcr-Abl/T315I” value in [3] came to 65%. The IC50 in test [5] lay within 11000 to 100000 nM. Moreover, the “% Apoptosis by Flow Cytometry Analysis” value in [6] (3X IC50, 96 h time point) is on record as 10%; in [6] (5X IC50, 48 h time point), 12.2%; in [6] (5X IC50, 96 h time point) it was 5.2%. For the same molecule, the “p-Smad2 and p-Smad3, effector target molecules of TGFβ signaling” value in test [12] is “strongly downregulated”.
